One series has as its target T1, CYP3A4 (Homo sapiens, UniProt P08684).
T1 construct: purchased Invitrogen
Nature of the series: In-Vitro Cytochrome P450 (CYP450) Inhibition Assay (Vivid CYP450). It is filed as in vitro ADME. The conditions noted are these: CYP3A4 enzyme complex (Vivid CYP450, Invitrogen), 6 μM test concentration. The protocol:
We evaluated interaction of drug candidates with cytochrome P450 enzymes which are a major determinant of drug clearance via oxidative metabolism using a high throughput compatible, fluorescence based CYP450 screening assay (Vivid® CYP450, Invitrogen) according to manufacturer's directions.
In brief, test compounds at four different concentrations (μM—6.0, 2.0, 0.7, 0.2), a positive control (Ketoconazole) and a solvent control were incubated at room temperature in unique wells of a 96-well microtiter plate with CYP3A4 enzyme complex for 20 minutes. A pre-read fluorescence (Ex−485 nm/Em−530 nm) was measured at the start of the incubation using a Tecan Safire^2 microplate reader-monochromator to determine background fluorescence. At the end of the incubation period, enzyme substrate and co-enzyme were added and the reaction was kinetically monitored for 1 hour by measuring fluorescence every minute. Effect of test compounds on inhibition of CYP3A4 metabolism of provided substrate was determined by calculating the ratio of the effective reaction rate in presence of test compound to that in the absence of inhibitor.

In the next series the target is T2, hNaV1.7 (Homo sapiens, UniProt Q15858).
T2 construct: expressed in transfected cells
Nature of the series: FDSS Membrane Potential In-Vitro Assay. Format: cell-based. The conditions noted are these: stimulation with veratridine and scorpion venom, read-out: NaV1.7 IC50.

The next series has as its target T3, NaV1.7 (Homo sapiens, UniProt Q15858).
T3 construct: expressed in transfected cells
Description: Patchliner Electrophysiological In-Vitro Assay (NaV1.7). The conditions noted are these: Patchliner patch clamp, HEK293, holding at V1/2. Format: cell-based. The protocol:
In vitro assays were performed in recombinant cell line that stably express a heterotrimeric protein of interest from an introduced nucleic acid encoding the alpha subunit (hNav1.7, SCN9A), the beta subunit (SCNB1) and the beta subunit (SCNB2). The cell line was engineered using Human Embryonic Kidney 293 cells as host background. Additional cell lines stably expressing recombinant Nav1.7 or Nav1.5 alpha subunit alone or in combination with various beta subunits can also be used in in-vitro assays.
(§1) The recording of sodium current from stable HEK293 cell lines expressing NaV1.7 or NaV1.5 was done on a Patchliner® instrument, Nanion Technologies. The Patchliner® is a fully automated bench-top patch clamp platform and can record simultaneously from up to eight single cells with GΩ seals.
(§2) For patch-clamp experiments, cells were grown under standard culturing conditions in Dulbecco's Modified Eagles medium supplemented with 10% fetal bovine serum, glutamine and HEPES. Cells were harvested and kept in suspension for up to 4 hours with no significant change in quality or ability to patch. Whole cell patch clamp recordings were conducted according to Nanion's standard procedure for the Patchliner®. Experiments were conducted at room temperature.
(§3) Voltage protocols were designed to establish: 1) peak current amplitude (Imax), 2) test potential (Vmax) and 3) half-inactivation potential (V1/2) for each of the eight individual cells. To determine V1/2, a standard steady-state inactivation protocol was executed using a series of fifteen 500 ms depolarizing pre-pulses in 10 mV increments (starting at −130 mV) and immediately followed by a 10 ms test pulse to Vmax. To estimate test compound affinity to the inactivated state of sodium channel (Ki), the holding potential for each cell was set automatically to the V1/2 calculated from a steady-state inactivation data. The current was activated with the following voltage protocol: holding at V1/2 for 2-5 seconds, return to the −120 mV for 5-10 ms to relieve fast inactivation, stepping to test potential (Vmax) for 10-20 ms. This voltage protocol was repeated every 10 seconds to establish the baseline with 2-3 buffer additions followed by the test compound addition. The dose-dependent inhibition was analyzed using Nanion's Data Analysis Package.
Background: Patch clamp records ionic current or voltage across a cell membrane.

For a further series, the target named is T4, NaV1.5 (Homo sapiens, UniProt Q14524).
T4 construct: expressed in transfected cells
Nature of the series: Patchliner Electrophysiological In-Vitro Assay (NaV1.5). It is filed as cell-based. To be noted: Patchliner patch clamp, HEK293. The method, then: as §1, §2, §3

Series [1] deals with Formalin Test (pain behaviors). Nature of the series: Formalin Test (pain behaviors). To be noted: relative to vehicle control; 150 μL of 1 or 2% w/v solution, topical route. It is filed as in vivo, rat.

Structures are written as SMILES.

T4 sequence (Q14524 whole entry): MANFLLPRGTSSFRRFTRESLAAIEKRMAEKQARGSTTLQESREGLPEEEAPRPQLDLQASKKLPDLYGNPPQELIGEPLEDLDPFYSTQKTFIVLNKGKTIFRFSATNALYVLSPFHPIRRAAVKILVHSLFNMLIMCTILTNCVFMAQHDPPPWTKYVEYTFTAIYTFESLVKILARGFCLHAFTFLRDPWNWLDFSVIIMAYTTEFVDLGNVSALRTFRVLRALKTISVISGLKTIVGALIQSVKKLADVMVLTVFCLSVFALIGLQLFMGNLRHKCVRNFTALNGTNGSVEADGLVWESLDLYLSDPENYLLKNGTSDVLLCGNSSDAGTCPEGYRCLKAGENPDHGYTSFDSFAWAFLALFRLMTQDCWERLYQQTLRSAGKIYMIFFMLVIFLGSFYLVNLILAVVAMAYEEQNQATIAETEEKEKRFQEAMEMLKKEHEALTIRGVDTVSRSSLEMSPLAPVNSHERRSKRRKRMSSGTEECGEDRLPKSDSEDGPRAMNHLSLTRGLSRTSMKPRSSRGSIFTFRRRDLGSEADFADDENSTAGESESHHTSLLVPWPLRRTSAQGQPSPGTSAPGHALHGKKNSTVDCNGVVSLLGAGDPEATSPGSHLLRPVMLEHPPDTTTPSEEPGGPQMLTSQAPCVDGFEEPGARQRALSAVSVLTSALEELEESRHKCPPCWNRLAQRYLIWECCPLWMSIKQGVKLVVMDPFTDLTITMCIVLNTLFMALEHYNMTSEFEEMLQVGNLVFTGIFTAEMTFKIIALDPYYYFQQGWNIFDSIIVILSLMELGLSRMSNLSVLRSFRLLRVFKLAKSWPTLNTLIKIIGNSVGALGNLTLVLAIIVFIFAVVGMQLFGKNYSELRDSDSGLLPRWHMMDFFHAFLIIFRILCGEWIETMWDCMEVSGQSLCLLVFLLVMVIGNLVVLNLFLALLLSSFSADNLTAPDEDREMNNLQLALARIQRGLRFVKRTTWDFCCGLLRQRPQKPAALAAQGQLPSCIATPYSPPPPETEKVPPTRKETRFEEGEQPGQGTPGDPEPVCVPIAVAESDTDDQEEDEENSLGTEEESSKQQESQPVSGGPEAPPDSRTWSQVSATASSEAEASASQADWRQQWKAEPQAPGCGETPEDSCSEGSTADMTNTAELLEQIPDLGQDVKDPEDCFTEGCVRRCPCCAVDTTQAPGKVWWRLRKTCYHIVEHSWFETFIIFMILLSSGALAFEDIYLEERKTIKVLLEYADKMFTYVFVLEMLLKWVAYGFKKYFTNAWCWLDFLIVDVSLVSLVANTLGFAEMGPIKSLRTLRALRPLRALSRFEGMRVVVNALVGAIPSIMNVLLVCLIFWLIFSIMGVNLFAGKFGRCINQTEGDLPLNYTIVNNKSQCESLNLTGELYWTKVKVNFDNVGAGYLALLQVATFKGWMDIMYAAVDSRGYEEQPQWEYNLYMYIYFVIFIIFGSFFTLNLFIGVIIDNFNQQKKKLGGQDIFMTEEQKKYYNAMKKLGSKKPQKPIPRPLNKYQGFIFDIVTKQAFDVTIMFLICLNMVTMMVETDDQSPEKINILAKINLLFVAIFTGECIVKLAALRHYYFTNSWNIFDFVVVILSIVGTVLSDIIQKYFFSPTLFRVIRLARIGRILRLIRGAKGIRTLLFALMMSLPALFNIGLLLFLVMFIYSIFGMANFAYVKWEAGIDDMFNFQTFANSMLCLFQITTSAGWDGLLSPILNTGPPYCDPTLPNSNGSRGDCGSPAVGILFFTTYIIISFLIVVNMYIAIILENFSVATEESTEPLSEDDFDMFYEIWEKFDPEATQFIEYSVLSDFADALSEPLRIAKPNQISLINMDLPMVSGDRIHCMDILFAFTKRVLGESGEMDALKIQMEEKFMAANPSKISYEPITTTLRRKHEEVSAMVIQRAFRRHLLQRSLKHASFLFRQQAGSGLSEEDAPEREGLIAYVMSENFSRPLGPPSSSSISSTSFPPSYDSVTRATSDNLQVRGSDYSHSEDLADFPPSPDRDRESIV
T2 sequence (Q15858 whole entry): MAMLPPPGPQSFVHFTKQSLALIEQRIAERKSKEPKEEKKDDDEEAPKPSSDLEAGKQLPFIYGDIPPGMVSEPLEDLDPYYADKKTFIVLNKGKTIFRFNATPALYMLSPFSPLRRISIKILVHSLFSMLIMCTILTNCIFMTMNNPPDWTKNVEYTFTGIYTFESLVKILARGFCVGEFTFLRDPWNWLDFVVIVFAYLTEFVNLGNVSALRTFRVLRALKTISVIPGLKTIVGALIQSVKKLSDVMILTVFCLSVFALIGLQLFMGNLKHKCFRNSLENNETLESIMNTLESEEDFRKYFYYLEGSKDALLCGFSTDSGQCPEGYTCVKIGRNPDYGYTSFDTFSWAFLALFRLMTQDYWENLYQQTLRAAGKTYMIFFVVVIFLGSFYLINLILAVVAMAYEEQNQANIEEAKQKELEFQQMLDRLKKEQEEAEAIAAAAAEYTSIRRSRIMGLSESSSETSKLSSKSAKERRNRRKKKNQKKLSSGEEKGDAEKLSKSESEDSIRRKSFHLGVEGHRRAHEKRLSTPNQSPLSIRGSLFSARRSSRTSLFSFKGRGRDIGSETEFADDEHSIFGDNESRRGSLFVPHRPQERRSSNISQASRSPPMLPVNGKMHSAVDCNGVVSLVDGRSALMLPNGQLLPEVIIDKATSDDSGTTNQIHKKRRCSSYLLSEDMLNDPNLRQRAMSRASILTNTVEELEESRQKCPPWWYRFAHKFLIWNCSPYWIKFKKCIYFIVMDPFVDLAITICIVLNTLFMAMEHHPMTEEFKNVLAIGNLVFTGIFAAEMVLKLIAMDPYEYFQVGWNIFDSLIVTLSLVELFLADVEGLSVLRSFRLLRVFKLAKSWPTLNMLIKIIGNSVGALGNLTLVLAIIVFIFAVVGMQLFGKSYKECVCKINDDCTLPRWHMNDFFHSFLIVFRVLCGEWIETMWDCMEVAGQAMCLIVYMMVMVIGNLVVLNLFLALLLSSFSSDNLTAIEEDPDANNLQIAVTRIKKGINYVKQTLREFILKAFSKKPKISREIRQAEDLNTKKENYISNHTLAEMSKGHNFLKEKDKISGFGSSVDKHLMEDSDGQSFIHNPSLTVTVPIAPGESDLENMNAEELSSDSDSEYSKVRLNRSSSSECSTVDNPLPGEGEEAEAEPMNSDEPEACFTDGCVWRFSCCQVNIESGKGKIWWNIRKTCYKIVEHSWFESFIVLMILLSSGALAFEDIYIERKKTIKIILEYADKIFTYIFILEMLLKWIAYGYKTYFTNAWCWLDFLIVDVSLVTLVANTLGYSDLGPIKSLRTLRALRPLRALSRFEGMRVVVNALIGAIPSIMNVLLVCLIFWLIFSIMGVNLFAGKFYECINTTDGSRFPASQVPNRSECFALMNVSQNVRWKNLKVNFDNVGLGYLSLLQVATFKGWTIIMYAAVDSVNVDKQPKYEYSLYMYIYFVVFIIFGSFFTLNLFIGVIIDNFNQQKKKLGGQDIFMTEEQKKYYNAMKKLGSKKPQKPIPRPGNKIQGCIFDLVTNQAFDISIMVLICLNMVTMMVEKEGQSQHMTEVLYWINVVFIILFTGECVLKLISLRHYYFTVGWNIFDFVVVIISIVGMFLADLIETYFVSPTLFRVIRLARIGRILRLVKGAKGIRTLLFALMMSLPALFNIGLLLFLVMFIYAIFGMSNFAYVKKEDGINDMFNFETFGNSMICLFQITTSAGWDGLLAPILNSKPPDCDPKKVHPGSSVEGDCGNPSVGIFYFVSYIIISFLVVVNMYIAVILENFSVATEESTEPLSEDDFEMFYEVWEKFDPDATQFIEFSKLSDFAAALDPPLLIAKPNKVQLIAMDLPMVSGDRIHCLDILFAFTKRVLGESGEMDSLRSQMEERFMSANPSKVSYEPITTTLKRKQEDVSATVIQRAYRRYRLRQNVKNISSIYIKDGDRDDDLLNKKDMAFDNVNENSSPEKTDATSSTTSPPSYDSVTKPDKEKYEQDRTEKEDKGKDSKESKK
T2 sequence (Q07699 19-218 partner): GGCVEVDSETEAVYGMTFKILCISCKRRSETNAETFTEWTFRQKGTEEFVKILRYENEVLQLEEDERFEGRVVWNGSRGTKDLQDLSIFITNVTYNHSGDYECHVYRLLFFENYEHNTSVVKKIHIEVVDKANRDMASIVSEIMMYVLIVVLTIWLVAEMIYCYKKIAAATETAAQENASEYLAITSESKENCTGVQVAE
T2 sequence (O60939 30-215 partner): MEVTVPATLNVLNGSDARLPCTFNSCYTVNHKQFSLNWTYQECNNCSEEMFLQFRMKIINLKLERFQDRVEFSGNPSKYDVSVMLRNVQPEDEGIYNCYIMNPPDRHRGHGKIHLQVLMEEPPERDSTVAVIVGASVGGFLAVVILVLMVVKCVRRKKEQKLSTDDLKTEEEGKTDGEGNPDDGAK
T3 sequence (Q15858 whole entry): as the sequence (Q15858 whole entry) above
T3 sequence (Q07699 19-218 partner): as the sequence (Q07699 19-218 partner) above
T3 sequence (O60939 30-215 partner): as the sequence (O60939 30-215 partner) above
T1 sequence (P08684 2-503 limits assumed): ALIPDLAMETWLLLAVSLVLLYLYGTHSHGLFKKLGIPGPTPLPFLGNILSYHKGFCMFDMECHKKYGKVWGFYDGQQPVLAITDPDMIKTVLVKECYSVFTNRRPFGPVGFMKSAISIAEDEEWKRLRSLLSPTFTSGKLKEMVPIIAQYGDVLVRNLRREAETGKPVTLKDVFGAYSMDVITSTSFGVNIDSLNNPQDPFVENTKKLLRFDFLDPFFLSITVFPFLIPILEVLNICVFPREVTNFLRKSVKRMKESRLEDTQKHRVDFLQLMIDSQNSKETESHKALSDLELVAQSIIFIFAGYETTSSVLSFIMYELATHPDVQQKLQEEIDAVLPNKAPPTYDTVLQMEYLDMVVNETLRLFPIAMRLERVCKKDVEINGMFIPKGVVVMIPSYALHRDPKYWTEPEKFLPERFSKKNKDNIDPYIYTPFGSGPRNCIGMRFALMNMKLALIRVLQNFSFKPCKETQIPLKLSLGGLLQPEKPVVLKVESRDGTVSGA

As a reminder, the inhibition is the drop in the measured response relative to a control, in per cent. As usually defined, the IC50 is the point on the concentration scale where inhibition reaches its midpoint. On to `C[C@H](NC(=O)c1cc(-c2cc(Cl)ccc2Oc2cc(F)c(S(=O)(=O)Nc3ncns3)cc2Cl)ccn1)C(=O)O` [Compound 8, (S)-2-(4-(2-(4-(N-(1,2,4-thiadiazol-5-yl)sulfamoyl)-2-chloro-5-fluorophenoxy)-5-chlorophenyl)picolinamido)propanoic acid], for which the inhibition at 1 hour, 6 µM against CYP3A4 is 25 to 50%. Moreover, the IC50 was 130 to 1000 nM at hNaV1.7 and less than 100 nM at NaV1.7.

For `O=S(=O)(Nc1nccs1)c1cc(Cl)c(Oc2ccccc2-c2cnn3c2NCCC3)cc1F` [Compound 56, 5-chloro-2-fluoro-4-(2-(4,5,6,7-tetrahydropyrazolo[1,5-a]pyrimidin-3-yl)phenoxy)-N-(thiazol-2-yl)benzenesulfonamide], the IC50 at NaV1.5 was greater than 10000 nM; on hNaV1.7, 500 to 1000 nM.

With `O=S(=O)(Nc1cscn1)c1cc(Cl)c(Oc2ccccc2-c2cnn3c2NCCC3)cc1F` [Compound 58, 5-chloro-2-fluoro-4-(2-(4,5,6,7-tetrahydropyrazolo[1,5-a]pyrimidin-3-yl)phenoxy)-N-(thiazol-4-yl)benzenesulfonamide], the results for the 50% inhibitory concentration (IC50) at NaV1.5, at hNaV1.7 and on NaV1.7 were greater than 10000 nM, 1000 to 20000 nM and 1000 to 10000 nM, respectively.

On CYP3A4, `O=C(O)C1CCCN(CCCc2cc(Cl)ccc2Oc2cc(F)c(S(=O)(=O)Nc3cscn3)cc2Cl)C1` (stereo not drawn) [Compound 19, 1-(3-(5-chloro-2-(2-chloro-5-fluoro-4-(N-(thiazol-4-yl)sulfamoyl)phenoxy)phenyl)propyl)piperidine-3-carboxylic acid] yielded an inhibition at 1 hour, 6 µM of 0 to 25%. For the same compound, the IC50 at hNaV1.7 lay within 1000 to 20000 nM; at NaV1.7 it was 100 to 1000 nM.

`C[C@@H](NC(=O)c1cc(-c2cc(Cl)ccc2Oc2cc(F)c(S(=O)(=O)Nc3ncns3)cc2Cl)ccn1)C(=O)O` [Compound 6, (R)-2-(4-(2-(4-(N-(1,2,4-thiadiazol-5-yl)sulfamoyl)-2-chloro-5-fluorophenoxy)-5-chlorophenyl)picolinamido)propanoic acid]: the inhibition at 1 hour, 6 µM against CYP3A4 lay in the range of 25 to 50%. Besides, the IC50 was 130 to 1000 nM on hNaV1.7 and less than 100 nM on NaV1.7.

Turning to `O=C(O)CNCCCc1cc(Cl)ccc1Oc1cc(F)c(S(=O)(=O)Nc2nccs2)cc1F` [Compound 18, 2-((3-(5-chloro-2-(2,5-difluoro-4-(N-(thiazol-2-yl)sulfamoyl)phenoxy)phenyl)propyl)amino)acetic acid], the inhibition at 1 hour, 6 µM against CYP3A4 lay in the range of 0 to 25%. In addition, the IC50 at hNaV1.7 lay within 130 to 1000 nM; at NaV1.7, 100 to 1000 nM.

Consider `O=C(O)CNCCCc1cc(Cl)ccc1Oc1cc(F)c(S(=O)(=O)Nc2nccs2)cc1Cl` [Compound 13, 2-((3-(5-chloro-2-(2-chloro-5-fluoro-4-(N-(thiazol-2-yl)sulfamoyl)phenoxy)phenyl)propyl)amino)acetic acid], for which, on CYP3A4, the inhibition at 1 hour, 6 µM fell in the range of 0 to 25%. Moreover, the results for the IC50 at hNaV1.7 and at NaV1.7 were less than 130 nM and less than 100 nM, respectively.

`NC(CCNCCCc1cc(Cl)ccc1Oc1cc(F)c(S(=O)(=O)Nc2cscn2)cc1Cl)C(=O)O` (stereo not drawn) [Compound 17, 2-amino-4-((3-(5-chloro-2-(2-chloro-5-fluoro-4-(N-(thiazol-4-yl)sulfamoyl)phenoxy)phenyl)propyl)amino)butanoic acid]: the inhibition at 1 hour, 6 µM on CYP3A4 lay within 0 to 25%. In addition, the concentration for half-maximal inhibition (IC50) on hNaV1.7 lay in the range of 1000 to 20000 nM; at NaV1.7, 100 to 1000 nM.

`CS(=O)(=O)CCNCCCc1cc(Cl)ccc1Oc1cc(F)c(S(=O)(=O)Nc2cscn2)cc1Cl` [Compound 44, 5-chloro-4-(4-chloro-2-(3-((2-(methylsulfonyl)ethyl)amino)propyl)phenoxy)-2-fluoro-N-(thiazol-4-yl)benzenesulfonamide]: the values for the IC50 against NaV1.5 and on NaV1.7 were greater than 10000 nM and less than 100 nM, respectively.

`O=C(O)C1CCN(CCCc2cc(Cl)ccc2Oc2cc(F)c(S(=O)(=O)Nc3ncns3)cc2Cl)CC1` [Compound 32, 1-(3-(2-(4-(N-(1,2,4-thiadiazol-5-yl)sulfamoyl)-2-chloro-5-fluorophenoxy)-5-chlorophenyl)propyl)piperidine-4-carboxylic acid] had an inhibition at 1 hour, 6 µM at CYP3A4 of 50 to 100%. Also, the IC50 was less than 130 nM at hNaV1.7 and less than 100 nM on NaV1.7.

As to `CC(NC(=O)c1cc(-c2cc(Cl)ccc2Oc2cc(F)c(S(=O)(=O)Nc3ncns3)cc2Cl)ccn1)C(=O)O` (racemic) [Compound 5, 2-(4-(2-(4-(N-(1,2,4-thiadiazol-5-yl)sulfamoyl)-2-chloro-5-fluorophenoxy)-5-chlorophenyl)picolinamido)propanoic acid], at CYP3A4, the inhibition at 1 hour, 6 µM is 25 to 50%. Moreover, the IC50 is 130 to 1000 nM at hNaV1.7 and less than 100 nM on NaV1.7.

At CYP3A4, `O=C(O)CCNCCCc1cc(Cl)ccc1Oc1cc(F)c(S(=O)(=O)Nc2cscn2)cc1F` [Compound 22, 3-((3-(5-chloro-2-(2,5-difluoro-4-(N-(thiazol-4-yl)sulfamoyl)phenoxy)phenyl)propyl)amino)propanoic acid] displayed an inhibition at 1 hour, 6 µM of 0 to 25%. Besides, the IC50 on hNaV1.7 is 1000 to 20000 nM; at NaV1.7, 100 to 1000 nM.

`NC1(C(=O)O)CCN(CCCc2cc(Cl)ccc2Oc2cc(F)c(S(=O)(=O)Nc3cscn3)cc2Cl)CC1` [Compound 16, 4-amino-1-(3-(5-chloro-2-(2-chloro-5-fluoro-4-(N-(thiazol-4-yl)sulfamoyl)phenoxy)phenyl)propyl)piperidine-4-carboxylic acid] gave an inhibition at 1 hour, 6 µM on CYP3A4 of 25 to 50%. The IC50 on hNaV1.7 is less than 130 nM; on NaV1.7 it was less than 100 nM.

`O=C(O)CCNCCCc1cc(Cl)ccc1Oc1cc(F)c(S(=O)(=O)Nc2ncns2)cc1Cl` [Compound 12, 3-((3-(2-(4-(N-(1,2,4-thiadiazol-5-yl)sulfamoyl)-2-chloro-5-fluorophenoxy)-5-chlorophenyl)propyl)amino)propanoic acid] showed an inhibition at 1 hour, 6 µM at CYP3A4 of 50 to 100%. For the same compound, in series [1], the “reduction in pain response (formalin assay phase 2)” value is listed as 29-43% and the “reduction in pain response (formalin assay, phase 1)” value is 13-24%. Also, on hNaV1.7, the IC50 is less than 130 nM. At NaV1.7, the IC50 was less than 100 nM.

As for `O=C(O)CNCCCc1cc(Cl)ccc1Oc1cc(F)c(S(=O)(=O)Nc2cscn2)cc1F` [Compound 21, 2-((3-(5-chloro-2-(2,5-difluoro-4-(N-(thiazol-4-yl)sulfamoyl)phenoxy)phenyl)propyl)amino)acetic acid], the inhibition at 1 hour, 6 µM on CYP3A4 fell in the range of 0 to 25%. Moreover, the IC50 lay in the range of 1000 to 20000 nM on hNaV1.7 and 100 to 1000 nM on NaV1.7.

On to `O=C(O)CNCCCc1ccccc1Oc1cc(F)c(S(=O)(=O)Nc2ncns2)cc1Cl` [Compound 20, 2-((3-(2-(4-(N-(1,2,4-thiadiazol-5-yl)sulfamoyl)-2-chloro-5-fluorophenoxy)phenyl)propyl)amino)acetic acid], for which the inhibition at 1 hour, 6 µM against CYP3A4 was in the range of 50 to 100%. Further, the values for the IC50 on hNaV1.7 and on NaV1.7 were 130 to 1000 nM and less than 100 nM, respectively.

With `O=C(O)C1CCN(CCCc2cc(Cl)ccc2Oc2cc(F)c(S(=O)(=O)Nc3cscn3)cc2Cl)CC1` [Compound 14, 1-(3-(5-chloro-2-(2-chloro-5-fluoro-4-(N-(thiazol-4-yl)sulfamoyl)phenoxy)phenyl)propyl)piperidine-4-carboxylic acid], on CYP3A4, the inhibition at 1 hour, 6 µM was 0 to 25%. For the same compound, the IC50 was 1000 to 20000 nM at hNaV1.7 and 100 to 1000 nM at NaV1.7.
